ChEMBL document CHEMBL4130364, “4-Aminoquinoline-chalcone/-N-acetylpyrazoline conjugates: Synthesis and antiplasmodial evaluation” (Eur J Med Chem, 2017)
pIC50: −log10 of the molar value.

Assays:
[1] = test system: Plasmodium falciparum; assay: Antiplasmodial activity against chloroquine-resistant Plasmodium falciparum W2 after 48 hrs by YOYO-1 dye-based flow cytometry; type: functional, organism-based; conditions: W2, 48 h
[2] = test system: HeLa; assay: Cytotoxicity against human HeLa cells assessed as reduction in cell viability after 24 hrs by trypan blue-based hemacytometer counting analysis
[3] = Selectivity index, ratio of IC50 for human HeLa cells to IC50 for chloroquine-resistant Plasmodium falciparum W2; type: toxicity; conditions: read-out: Ratio IC50

SMILES	pIC50 [1]	pIC50 [2]	selectivity ratio [3]
COc1ccc(C2CC(c3ccc(OCc4cn(CCCNc5ccnc6cc(Cl)ccc56)nn4)c(OC)c3)=NN2C(C)=O)cc1OC (stereo unspecified)	5.77	–	–
COc1ccc(C2CC(c3ccc(OCc4cn(CCCNc5ccnc6cc(Cl)ccc56)nn4)c(OC)c3)=NN2C(C)=O)cc1 (stereo unspecified)	5.80	–	–
COc1cc(C(=O)/C=C/c2ccccc2)ccc1OCc1cn(CCCNc2ccnc3cc(Cl)ccc23)nn1	5.16	–	–
COc1cc(C2CC(c3ccc(OCc4cn(CCCNc5ccnc6cc(Cl)ccc56)nn4)cc3)=NN2C(C)=O)cc(OC)c1OC (stereo unspecified)	5.62	–	–
COc1ccc(C2CC(c3ccc(OCc4cn(CCNc5ccnc6cc(Cl)ccc56)nn4)cc3)=NN2C(C)=O)cc1OC (stereo unspecified)	6.82	–	–
COc1ccc(/C=C/C(=O)c2ccc(OCc3cn(CCCNc4ccnc5cc(Cl)ccc45)nn3)c(OC)c2)cc1	< 5.00	–	–
COc1cc(C(=O)/C=C/c2cc(OC)c(OC)c(OC)c2)ccc1OCc1cn(CCNc2ccnc3cc(Cl)ccc23)nn1	6.45	–	–
COc1cc(C2=NN(C(C)=O)C(c3ccccc3)C2)ccc1OCc1cn(CCCNc2ccnc3cc(Cl)ccc23)nn1 (stereo unspecified)	7.11	4.34	598
COc1ccc(/C=C/C(=O)c2ccc(OCc3cn(CCCNc4ccnc5cc(Cl)ccc45)nn3)cc2)cc1	< 5.00	–	–
COc1cccc2c1C(=O)c1c(O)c3c(c(O)c1C2=O)C[C@@](O)(C(=O)CO)C[C@@H]3O[C@H]1C[C@H](N)[C@H](O)[C@H](C)O1 [DOXORUBICIN]	–	5.08	–
CC(=O)N1N=C(c2ccc(OCc3cn(CCNc4ccnc5cc(Cl)ccc45)nn3)cc2)CC1c1ccccc1 (stereo unspecified)	6.62	–	–
COc1cc(C(=O)/C=C/c2cc(OC)c(OC)c(OC)c2)ccc1OCc1cn(CCCNc2ccnc3cc(Cl)ccc23)nn1	6.08	–	–
COc1ccc(/C=C/C(=O)c2ccc(OCc3cn(CCNc4ccnc5cc(Cl)ccc45)nn3)c(OC)c2)cc1OC	6.08	–	–
COc1cc(C(=O)/C=C/c2ccccc2)ccc1OCc1cn(CCNc2ccnc3cc(Cl)ccc23)nn1	6.45	–	–
COc1ccc(C2CC(c3ccc(OCc4cn(CCNc5ccnc6cc(Cl)ccc56)nn4)cc3)=NN2C(C)=O)cc1 (stereo unspecified)	6.88	4.53	223
COc1cc(/C=C/C(=O)c2ccc(OCc3cn(CCCNc4ccnc5cc(Cl)ccc45)nn3)cc2)cc(OC)c1OC	5.28	–	–
CC(=O)N1N=C(c2ccc(OCc3cn(CCCNc4ccnc5cc(Cl)ccc45)nn3)cc2)CC1c1ccccc1 (stereo unspecified)	5.52	–	–

SMILES	pIC50 [1]	pIC50 [2]	selectivity ratio [3]
COc1ccc(/C=C/C(=O)c2ccc(OCc3cn(CCNc4ccnc5cc(Cl)ccc45)nn3)cc2)cc1	6.94	4.45	311
COc1ccc(C2CC(c3ccc(OCc4cn(CCNc5ccnc6cc(Cl)ccc56)nn4)c(OC)c3)=NN2C(C)=O)cc1 (stereo unspecified)	7.23	4.48	558
COc1ccc(/C=C/C(=O)c2ccc(OCc3cn(CCCNc4ccnc5cc(Cl)ccc45)nn3)c(OC)c2)cc1OC	6.47	–	–
O=C(/C=C/c1ccccc1)c1ccc(OCc2cn(CCNc3ccnc4cc(Cl)ccc34)nn2)cc1	6.76	–	–
COc1cc(C2=NN(C(C)=O)C(c3cc(OC)c(OC)c(OC)c3)C2)ccc1OCc1cn(CCNc2ccnc3cc(Cl)ccc23)nn1 (stereo unspecified)	6.86	–	–
COc1ccc(/C=C/C(=O)c2ccc(OCc3cn(CCNc4ccnc5cc(Cl)ccc45)nn3)c(OC)c2)cc1	5.72	–	–
COc1ccc(C2CC(c3ccc(OCc4cn(CCCNc5ccnc6cc(Cl)ccc56)nn4)cc3)=NN2C(C)=O)cc1OC (stereo unspecified)	6.30	–	–
COc1ccc(C2CC(c3ccc(OCc4cn(CCNc5ccnc6cc(Cl)ccc56)nn4)c(OC)c3)=NN2C(C)=O)cc1OC (stereo unspecified)	7.27	4.37	795
COc1cc(/C=C/C(=O)c2ccc(OCc3cn(CCNc4ccnc5cc(Cl)ccc45)nn3)cc2)cc(OC)c1OC	6.76	–	–
COc1ccc(C2CC(c3ccc(OCc4cn(CCCNc5ccnc6cc(Cl)ccc56)nn4)cc3)=NN2C(C)=O)cc1 (stereo unspecified)	6.30	–	–
C[C@@H]1CC[C@H]2[C@@H](C)C(=O)O[C@@H]3O[C@@]4(C)CC[C@@H]1[C@]32OO4 [ARTEMISININ]	7.49	–	–
COc1cc(C2=NN(C(C)=O)C(c3ccccc3)C2)ccc1OCc1cn(CCNc2ccnc3cc(Cl)ccc23)nn1 (stereo unspecified)	6.54	–	–
O=C(/C=C/c1ccccc1)c1ccc(OCc2cn(CCCNc3ccnc4cc(Cl)ccc34)nn2)cc1	< 5.00	–	–
COc1cc(C2=NN(C(C)=O)C(c3cc(OC)c(OC)c(OC)c3)C2)ccc1OCc1cn(CCCNc2ccnc3cc(Cl)ccc23)nn1 (stereo unspecified)	5.76	–	–
COc1ccc(/C=C/C(=O)c2ccc(OCc3cn(CCNc4ccnc5cc(Cl)ccc45)nn3)cc2)cc1OC	6.85	4.90	90
COc1cc(C2CC(c3ccc(OCc4cn(CCNc5ccnc6cc(Cl)ccc56)nn4)cc3)=NN2C(C)=O)cc(OC)c1OC (stereo unspecified)	6.37	–	–
COc1ccc(/C=C/C(=O)c2ccc(OCc3cn(CCCNc4ccnc5cc(Cl)ccc45)nn3)cc2)cc1OC	< 5.00	–	–
